Values joined by “and” are separate entries in the source; they are usually repeats but may differ in a detail not shown here. Equal entries are not always repeated. Where two headings read alike, the source gives them in different places.
Key:
Type in all cases: cell-based
human PBM cells = test: Cytotoxicity assay on uninfected PHA stimulated human PBMC (trypan blue)
Outline: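 Uninfected PHA-stimulated human PBMC at 2×10^5 cells/ml were cultured with or without drug for 6 days. Viability was counted by trypan blue exclusion on a hemacytometer. IC50 was derived by the median-effect method.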

HIV-1 (strain LAV-1) = test: microbe, parasite or virus in culture
Procedure: Cells. Human peripheral blood mononuclear cells (PBMC) from healthy HIV-1 seronegative and hepatitis B virus seronegative donors were isolated by Ficoll-Hypaque discontinuous gradient centrifugation at 1,000×g for 30 minutes, washed twice in phosphate-buffered saline (pH 7.2; PBS), and pelleted at 300×g for 10 minutes. Before infection, the cells were stimulated by phytohemagglutinin (PHA) at a concentration of 6 μg/ml for three days in RPMI 1640 medium supplemented with 15% heat-inactivated fetal calf serum, 1.5 mM L-glutamine, penicillin (100 U/ml), streptomycin (100 μg/ml), and 4mM sodium bicarbonate buffer.
Viruses. HIV-1 (strain LAV-1) was obtained from Dr. P. Feorino (Centers for Disease Control, Atlanta, Ga.). The virus was propagated in human PBMC using RPMI 1640 medium, as described previously (McDougal et al, J. Immun. Meth. 76, 171-183, 1985) without PHA and supplemented with 7% v/v interleukin-2 (Advanced Biotechnologies, Silver Spring, Md.), 7 μg/ml DEAE-dextran (Pharmacia, Uppsala, Sweden), and 370 U/ml anti-human leucocyte (alpha) interferon (ICN, Lisle, Ill.). Virus obtained from cell-free culture supernatant was titrated and stored in aliquots at −80° C. until use.
Inhibition of virus replication in human PBMC. Uninfected PHA-stimulated human PBMC were uniformly distributed among 25 cm^2 flasks to give a 5 ml suspension containing about 2×10^6 cells/ml. Suitable dilutions of virus were added to infect the cultures. The mean reverse transcriptase (RT) activity of the inocula was 50,000 decompositions per min/ml corresponding to about 100 TCID50, as determined by Groopman et al. (Groopman et al, AIDS Res. Human Retro. 3, 71-85, 1987. The drugs at twice their final concentrations in 5 ml of RPMI 1640 medium, supplemented as described above, were added to the cultures. Uninfected and untreated PBMC at equivalent cell densities were grown in parallel as controls. The cultures were maintained in a humidified 5% CO2-95% air incubator at 37° C. for six days after infection, at which point all cultures were sampled for supernatant reverse transcriptase (RT) activity.
RT activity assay. Six ml supernatant from each culture was clarified from cells at 300×g for 10 minutes. Virus particles were pelleted from 5 ml samples at 40,000 rpm for 30 minutes using a Beckman 70.1 Ti rotor and suspended in 200 μl of virus disrupting buffer (50 mM Tris-Cl, pH 7.8, 800 mM NaCl, 20% glycerol, 0.5 mM phenylmethyl sulfonyl fluoride, and 0.5% Triton X-100).
The RT assay was performed in 96-well microtiter plates, as described by Spira et al. (Spira et al, J. Clin. Microbiol. 22, 97-99, 1987). The reaction mixture, which contained 50 mM Tris-Cl pH 7.8, 9 mM MgCl2, 5 mM dithiothreitol (DTT), 4.7 μg/ml (rA)n. (dT)12-18, 140 μM dATP, and 0.22 μM [^3H]TTP, specific activity 78.0 Ci/mmol, equivalent to 17,300 cpm/pmol; NEN Research Products, Boston, Mass., was added to each well. The sample (20 μl) was added to the reaction mixture which was then incubated at 37° C. for 2 hours. The reaction was terminated by the addition of 100 μl 10% trichloroacetic acid (TCA) containing 0.45 mM sodium pyrophosphate. The acid-insoluble nucleic acids which precipitated were collected on glass filters using a Skatron semi-automatic harvester. The filters were washed with 5% TCA and 70% ethanol, dried, and placed in scintillation vials. Four ml of scintillation fluid (Econofluor, NEN Research Products, Boston, Mass.) were added and the amount of radioactivity in each sample was determined using a Packard Tri-Carb liquid scintillation analyzer (model 2,000CA). The results were expressed in dpm/ml of original clarified supernatant.
Median-effect method. Dose-effect relationships were analyzed by the median-effect equation (Chou et al, Adv. Enz. Regul. 22, 27-55, 1984).

Vero cells = test: Cytotoxicity assay in Vero cells; details: for IC50: Table 2, >100 μM = Nontoxic, read-out: IC50 Toxicity Vero Cells; for Toxicity Vero Cells, percent at given concentration: 100 μM
Text: Cell culture assays for heroes simplex viruses. Mycoplasma-free Vero cells, obtained from Flow Laboratory (McLean, Va.), were used for the plaque assays. The methodologies for the plaque reduction and cytotoxicity assays have been previously described (Schinazi et al, Antimicrob. Agents Chemother. 22, 499-507, 1982).

[1] = tested on: human granulocyte-macrophage precursor cells
Text: Preparation of Cells. Human bone marrow cells were collected by aspiration from the posterior iliac crest of normal healthy volunteers, treated with heparin and the mononuclear population separated by Ficoll-Hypaque gradient centrifugation. Cells were washed twice in Hanks balanced salt solution, counted with a hemacytometer and their viability was >98% as assessed by trypan blue exclusion.
Assay of Colony-Forming Unit Granulocyte-Macrophage (CFU-GM) for Drug Cytotoxicity. The culture assay for CFU-GM was performed using a bilayer soft-agar method as recently described (Sommadossi et al, Antimicrob. Agents Chemother. 31, 452-454, 1987). McCoy 5A nutrient medium supplemented with 15% dialyzed fetal bovine serum (heat inactivated at 56° C. for 30 min.) (Gibco Laboratories, Grand Island, N.Y.) was used in all experiments. This medium was completely lacking in thymidine and uridine. Cells were cloned in 0.3% agar in the presence of increasing concentrations of the modulating compound or in medium alone (control). After 14 days of incubation at 37° C. in a humidified atmosphere of 5% CO2 in air, colonies (≧50 cells) were counted using an inverted microscope.
The toxicities of a variety of polyoxometalates with respect to human bone marrow cells (human granulocyte-macrophage precursor cells) were assessed.

[2] = Table 2, >100 μM = Nontoxic, read-out: IC50 Toxicity PBM Cells
[3] = Table 2, several values per cell, some in brackets, read-out: EC-50 HIV-1 (LAV-1)
[4] = Table 1, read-out: IC50 Toxicity in Human PBM Cells
[5] = Table 1, read-out: EC50 Anti-HIV-1 Activity in Human PBM Cells

| Compound | EC50 (HIV-1 (strain LAV-1); [3]) | IC50 (Vero cells) [µM] | IC50 (human PBM cells; [4]) [µM] | EC50 (HIV-1 (strain LAV-1); [5]) [µM] | other results |
| --- | --- | --- | --- | --- | --- |
| Cc1cn([C@H]2C[C@H](N=[N+]=[N-])[C@@H](CO)O2)c(=O)[nH]c1=O [Formula 22, 3′-azido-3′-deoxythymidine, reference compound] |  |  |  |  | IC50 (human PBM cells; Homo sapiens, PBMC, Table 1, read-out: IC50 Toxicity in Human PBM Cells): > 100 µM; IC50 (human PBM cells; Homo sapiens, PBMC, Table 2, >100 μM = Nontoxic, read-out: IC50 Toxicity PBM Cells): > 100 µM; EC50 (HIV-1 (strain LAV-1); Human immunodeficiency virus 1, PBMC, Table 1, read-out: EC50 Anti-HIV-1 Activity in Human PBM Cells): 0.004 µM; EC50 (HIV-1 (strain LAV-1); Human immunodeficiency virus 1, PBMC, Table 2, several values per cell, some in brackets, read-out: EC-50 HIV-1 (LAV-1)): 0.00308 µM; IC50 (Vero cells; Chlorocebus sabaeus, Vero): 29 µM; toxicity to human bone marrow cells (order of toxicity, FIG. 6) ([1]; human, 14 days): BT and NH4ST<AZT and ST<HPA-23 |
| (ArgH^+)m(H^+)4-mST, where m=1-4 [(ARGH^+)nH^+(4−n)ST] | 1.03 µM and 0.77 µM | > 100 |  |  | IC50 (human PBM cells; [2]): > 100 µM |
| (Me4N)4W10O32 [Formula 19] | 3.05 µM and 3.3 µM | > 100 | > 100 | 3.1 |  |
| (NH4)4W10O32 [Formula 18] |  | > 100 | 115 | 1.8 | IC50 (human PBM cells; [2]): > 100 µM |
| (NH4)6P2W18O62 [Formula 14] | 0.91 µM |  | 1.8 | 0.91 | Toxicity PBM Cells, percent at given concentration (human PBM cells; 100 μM): 76%,; Toxicity Vero Cells, percent at given concentration (Vero cells): 83%, |
| H3PW12O40 [Formula 2] | 14 µM | 10 | > 100 | 14 |  |
| H4SiW12O40 [Formula 3] |  | 80 | > 200 | 0.12 | EC50 (HIV-1 (strain LAV-1); Table 2, several values per cell, some in brackets, listed as α and β H4ST, read-out: EC-50 HIV-1 (LAV-1)): 0.12 µM and 0.21 µM; therapeutic index in human PBM cells (HIV-1 (strain LAV-1); from Table 1 EC50 and IC50): highest; toxicity to human bone marrow cells (order of toxicity, FIG. 6) [1]: BT and NH4ST<AZT and ST<HPA-23 |
| H5BW12O40 [Formula 4] |  | 85 | 126 | 0.46 | Toxicity PBM Cells, percent at given concentration (human PBM cells; 200 μM): 76%,; toxicity to human bone marrow cells (order of toxicity, FIG. 6) [1]: NH4BT (least toxic)<BT and NH4ST<AZT and ST |
| H6P2W18O62 [Formula 13] | 0.52 µM |  | 6.2 | 0.52 | Toxicity PBM Cells, percent at given concentration (human PBM cells; 100 μM): 90%,; Toxicity Vero Cells, percent at given concentration (Vero cells): 81.9%, |
